Laboratory results as given in ChEMBL document CHEMBL4130413, “1-Aryl-1H- and 2-aryl-2H-1,2,3-triazole derivatives blockade P2X7 receptor in vitro and inflammatory response in vivo” (Eur J Med Chem, 2017).
Calls of active or inactive are those of the source. The rule behind the calls is not given here.

How the values were obtained:
[1] = molecular target: T1, P2X purinoceptor 7 (Homo sapiens) (UniProt Q99572); assay: Antagonist activity at human P2X7 receptor expressed in HEK293 cells assessed as inhibition of ATP-induced ethidium iodide uptake at 10 uM preincubated for 10 mins followed by ATP addition measured after 20 mins by FLIPR assay relative to 1 mM ATP; assay type: cell-based
T1 sequence (whole entry): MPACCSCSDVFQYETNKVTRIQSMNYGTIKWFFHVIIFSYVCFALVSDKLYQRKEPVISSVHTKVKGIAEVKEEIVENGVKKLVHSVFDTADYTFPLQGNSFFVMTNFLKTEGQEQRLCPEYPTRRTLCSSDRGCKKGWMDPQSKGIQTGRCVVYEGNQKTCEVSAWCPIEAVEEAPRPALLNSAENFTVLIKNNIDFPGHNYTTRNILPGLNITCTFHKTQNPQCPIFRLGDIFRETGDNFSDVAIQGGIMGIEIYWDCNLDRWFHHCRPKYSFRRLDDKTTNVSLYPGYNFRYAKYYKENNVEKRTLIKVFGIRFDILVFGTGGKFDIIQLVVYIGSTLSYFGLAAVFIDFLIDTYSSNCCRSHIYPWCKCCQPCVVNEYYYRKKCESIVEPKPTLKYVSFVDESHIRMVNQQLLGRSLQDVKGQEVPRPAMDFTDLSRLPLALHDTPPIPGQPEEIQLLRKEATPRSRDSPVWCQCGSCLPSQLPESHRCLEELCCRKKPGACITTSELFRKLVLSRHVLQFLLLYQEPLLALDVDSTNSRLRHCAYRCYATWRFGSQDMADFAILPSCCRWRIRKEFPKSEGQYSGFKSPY

[2] = molecular target: P2X purinoceptor 7 (Mus musculus) (UniProt Q9Z1M0); assay: Antagonist activity at P2X7 receptor in Swiss mouse peritoneal macrophages assessed as inhibition of ATP-induced propidium iodide uptake at 10 uM after 30 mins by FLIPR assay relative to 1 mM ATP
[3] = system: Peritoneal macrophage; assay: Toxicity in Swiss mouse peritoneal macrophages assessed as LDH release at 10 uM after 60 mins relative to 0.05% Triton X-100; assay type: cell-based; details: 1 h
[4] = molecular target: T2, P2X purinoceptor 7 (Mus musculus) (UniProt Q9Z1M0); assay: Antagonist activity at mouse P2X7 receptor expressed in HEK293 cells assessed as inhibition of ATP-induced ethidium iodide uptake at 10 uM preincubated for 10 mins followed by ATP addition measured after 20 mins by FLIPR assay relative to 1 mM ATP; assay type: cell-based
T2 sequence (whole entry): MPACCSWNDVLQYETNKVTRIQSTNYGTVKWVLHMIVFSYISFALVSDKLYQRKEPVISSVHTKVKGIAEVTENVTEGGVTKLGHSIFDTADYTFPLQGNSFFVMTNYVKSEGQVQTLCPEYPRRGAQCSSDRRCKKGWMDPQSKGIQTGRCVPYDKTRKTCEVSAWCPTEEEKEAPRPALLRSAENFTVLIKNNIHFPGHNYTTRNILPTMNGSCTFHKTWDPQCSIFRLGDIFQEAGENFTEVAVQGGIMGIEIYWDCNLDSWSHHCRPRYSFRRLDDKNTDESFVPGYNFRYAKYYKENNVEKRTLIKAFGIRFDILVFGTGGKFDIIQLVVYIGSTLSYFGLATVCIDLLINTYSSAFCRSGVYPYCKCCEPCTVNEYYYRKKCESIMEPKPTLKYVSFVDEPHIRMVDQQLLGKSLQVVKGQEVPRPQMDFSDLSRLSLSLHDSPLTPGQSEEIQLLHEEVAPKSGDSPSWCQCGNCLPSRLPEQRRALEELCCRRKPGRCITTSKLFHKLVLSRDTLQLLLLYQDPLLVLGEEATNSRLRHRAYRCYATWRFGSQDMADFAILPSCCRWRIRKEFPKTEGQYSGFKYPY

[5] = Cytotoxicity against Swiss mouse peritoneal macrophages after 24 hrs by LDH-release assay; assay type: cell-based, Peritoneal macrophage
[6] = molecular target: T2, P2X purinoceptor 7 (Mus musculus); assay: (§1) Antagonist activity at P2X7 receptor in Swiss mouse peritoneal macrophages assessed as inhibition of ATP-induced propidium iodide uptake after 25 mins by flow cytometric analysis
[7] = molecular target: T3, P2X purinoceptor 7 (Mus musculus, UniProt Q9Z1M0); assay: as §1
T3 sequence (Q9Z1M0 whole entry): T2 sequence (whole entry)

[8] = molecular target: T3, P2X purinoceptor 7; assay: Antagonist activity at P2X7 receptor in Swiss mouse peritoneal macrophages assessed as inhibition of ATP-induced current at holding potential of -60 mV preincubated for 5 mins followed by ATP addition measured after 5 mins by Whole cell patch-clamp analysis
[9] = molecular target: T4, P2X purinoceptor 7 (Homo sapiens, UniProt Q99572); assay: Antagonist activity at human P2X7 receptor expressed in HEK293 cells assessed as inhibition of ATP-induced ethidium iodide uptake preincubated for 10 mins followed by ATP addition measured after 20 mins by spectrofluorometric analysis; assay type: cell-based
T4 sequence (Q99572 whole entry): T1 sequence (whole entry)

SMILES | inhibition [1] [%] | inhibition [2] [%] | Activity [3] [%] | inhibition [4] | CC50 at 24 h [5] [µM] | inhibition [6] | IC50 [7] [µM] | IC50 [8] [µM] | IC50 [9] [µM]
CCOCc1cnn(-c2ccccc2)n1 | 79.1 | 70 | 26.49 | Active | – | – | – | – | –
CCCOCc1cn(-c2cc(Cl)ccc2Cl)nn1 | 46.6 | 24 | 22.66 | – | – | – | – | – | –
O=C(OCc1cn(-c2cc(Cl)cc(Cl)c2)nn1)c1ccccc1 | 2.96 | 14.2 | 24.02 | – | – | – | – | – | –
COc1ccc(-n2cc(C=O)nn2)cc1 | 50.3 | 44.3 | 17.92 | – | – | – | – | – | –
CC(=O)OCc1cn(-c2cc(Cl)cc(Cl)c2)nn1 | 29.4 | 65.2 | 45.33 | – | – | – | – | – | –
CCCCOCc1cn(-c2ccc(Cl)cc2)nn1 | 15.1 | 35.8 | 30.33 | – | – | – | – | – | –
CCOCc1cn(-c2cc(Cl)cc(Cl)c2)nn1 | 51.2 | 36.5 | 34 | – | – | – | – | – | –
CCCCOCc1cn(-c2ccc(OC)cc2)nn1 | 51.3 | 31.4 | 27.66 | – | – | – | – | – | –
CC(=O)OCc1cn(-c2ccc(Cl)cc2)nn1 | 9.89 | 23.2 | 19.66 | – | – | – | – | – | –
O=Cc1cnn(-c2ccccc2)n1 | 42.1 | 31.5 | 41.65 | – | – | – | – | – | –
OCc1cn(-c2cc(Cl)ccc2Cl)nn1 | 38.1 | 28.3 | 12.09 | – | – | – | – | – | –
COc1ccc(-n2cc(COC(C)=O)nn2)cc1 | 9.12 | 29.4 | 15 | – | – | – | – | – | –
CCCCOCc1cnn(-c2ccccc2)n1 | 16.1 | 37.1 | 27.19 | – | – | – | – | – | –
CCCCOCc1cn(-c2ccccc2)nn1 | 67.5 | 78.1 | 32.33 | Active | – | – | – | – | –
CCCOCc1cn(-c2ccccc2)nn1 | 20.1 | 25.1 | 14.66 | – | – | – | – | – | –
CCCOCc1cn(-c2ccc(Cl)cc2)nn1 | 62.4 | 32.5 | 26.66 | – | – | – | – | – | –
CCCCC(=O)OCc1cn(-c2ccc(OC)cc2)nn1 | 8.15 | – | 46.3 | – | – | – | – | – | –
O=Cc1cn(-c2cc(Cl)ccc2Cl)nn1 | 44 | 36.7 | 13.73 | – | – | – | – | – | –
CCOCc1cn(-c2cc(Cl)ccc2Cl)nn1 | 45.3 | 75.5 | 42.66 | – | – | – | – | – | –
CCCCCCCCCC(=O)OCc1cn(-c2cc(Cl)ccc2Cl)nn1 | 1.17 | 9.86 | 10 | – | – | – | – | – | –
CC(=O)OCc1cn(-c2cc(Cl)ccc2Cl)nn1 | 71.2 | 76.6 | 32 | – | – | – | – | – | –
COc1ccc(-n2cc(CO)nn2)cc1 | 94.1 | 86.3 | 9.7 | Active | 0.363 | Dose-dependent effect | 0.488 | 0.341 | 0.932
O=C(OCc1cn(-c2ccc(Cl)cc2)nn1)c1ccccc1 | 26.8 | 60.6 | 45.73 | – | – | – | – | – | –
COc1ccc(-n2cc(COC(=O)c3ccccc3)nn2)cc1 | 10.6 | 24.4 | 10.66 | – | – | – | – | – | –
CCCCCC(=O)OCc1cn(-c2ccccc2)nn1 | 18.2 | 44.6 | 15.83 | – | – | – | – | – | –

SMILES | inhibition [1] [%] | inhibition [2] [%] | Activity [3] [%] | inhibition [4] | CC50 at 24 h [5] [µM] | inhibition [6] | IC50 [7] [µM] | IC50 [8] [µM] | IC50 [9] [µM]
OCc1cnn(-c2ccccc2)n1 | 90.2 | 84.2 | 9.18 | Active | 2.36 | Dose-dependent effect | 0.096 | 0.081 | 0.522
O=C(OCc1cn(-c2cc(Cl)ccc2Cl)nn1)c1ccccc1 | 3 | 11 | 26.66 | – | – | – | – | – | –
CC(=O)OCc1cnn(-c2ccccc2)n1 | 80.1 | 73.5 | 38.5 | – | – | – | – | – | –
OCc1cn(-c2ccccc2)nn1 | 30.1 | 10.9 | 20.98 | – | – | – | – | – | –
O/N=C/c1cnn(-c2ccccc2)n1 | 94.3 | 83 | 12.66 | Active | 0.25 | Dose-dependent effect | 0.349 | 0.457 | 0.897
CCCCOCc1cn(-c2cc(Cl)ccc2Cl)nn1 | 90.1 | 79.8 | 11.66 | – | 0.505 | Dose-dependent effect | 0.317 | 0.316 | 0.621
O=C(OCc1cnn(-c2ccccc2)n1)C1CCCC1 | 10.2 | 29.6 | 43.04 | – | – | – | – | – | –
O=C(OCc1cn(-c2cc(Cl)ccc2Cl)nn1)C1CCCC1 | 7.28 | 20.6 | 22.66 | – | – | – | – | – | –
CCCCCC(=O)OCc1cn(-c2ccc(Cl)cc2)nn1 | 2.2 | 11.1 | 34.19 | – | – | – | – | – | –
OCc1cn(-c2ccc(Cl)cc2)nn1 | 26.1 | 22.5 | 15.57 | – | – | – | – | – | –
CCCOCc1cn(-c2cc(Cl)cc(Cl)c2)nn1 | 33.7 | 24 | 14.03 | – | – | – | – | – | –
CCCOCc1cn(-c2ccc(OC)cc2)nn1 | 35.8 | 15.6 | 13.03 | – | – | – | – | – | –
CCCOCc1cnn(-c2ccccc2)n1 | 41.2 | 26.6 | 13.33 | – | – | – | – | – | –
O=C(OCc1cnn(-c2ccccc2)n1)c1ccccc1 | 88.2 | 81.3 | 36.94 | – | – | – | – | – | –
CCCCCCCCCC(=O)OCc1cnn(-c2ccccc2)n1 | 19.2 | 29.5 | 42.5 | – | – | – | – | – | –
CCCCCCCCCC(=O)OCc1cn(-c2ccc(Cl)cc2)nn1 | 78 | 76 | 8 | – | 2.84 | Dose-dependent effect | 0.107 | 0.103 | 0.108
CC(=O)OCc1cn(-c2ccccc2)nn1 | 81 | 84 | 36.39 | – | – | – | – | – | –
O/N=C/c1cn(-c2cc(Cl)cc(Cl)c2)nn1 | 62.1 | 58 | 29.47 | – | – | – | – | – | –
CCOCc1cn(-c2ccc(OC)cc2)nn1 | 45 | 44.8 | 20.66 | – | – | – | – | – | –
CCCCCCCCCC(=O)OCc1cn(-c2ccccc2)nn1 | 23.2 | 60 | 42.53 | – | – | – | – | – | –
O/N=C/c1cn(-c2ccccc2)nn1 | 64.3 | 58 | 28.59 | – | – | – | – | – | –
O=C(OCc1cn(-c2ccccc2)nn1)c1ccccc1 | 16.1 | 32.1 | 58.1 | – | – | – | – | – | –
CCOCc1cn(-c2ccccc2)nn1 | 56.7 | 49.3 | 52.73 | – | – | – | – | – | –
OCc1cn(-c2cc(Cl)cc(Cl)c2)nn1 | 41.1 | 11.4 | 30.55 | – | – | – | – | – | –
